# Measurements reported in US8580784B2, “Method for treating a disease related to the glucocorticoid receptor” (Santen Pharmaceutical Co., Ltd., priority 2006, dated 2013).
# Biological target: T1, Recombinant human GR (Homo sapiens, UniProt P04150)
# T1 construct: purchased Invitrogen P2816
# T1 sequence (P04150 1-777): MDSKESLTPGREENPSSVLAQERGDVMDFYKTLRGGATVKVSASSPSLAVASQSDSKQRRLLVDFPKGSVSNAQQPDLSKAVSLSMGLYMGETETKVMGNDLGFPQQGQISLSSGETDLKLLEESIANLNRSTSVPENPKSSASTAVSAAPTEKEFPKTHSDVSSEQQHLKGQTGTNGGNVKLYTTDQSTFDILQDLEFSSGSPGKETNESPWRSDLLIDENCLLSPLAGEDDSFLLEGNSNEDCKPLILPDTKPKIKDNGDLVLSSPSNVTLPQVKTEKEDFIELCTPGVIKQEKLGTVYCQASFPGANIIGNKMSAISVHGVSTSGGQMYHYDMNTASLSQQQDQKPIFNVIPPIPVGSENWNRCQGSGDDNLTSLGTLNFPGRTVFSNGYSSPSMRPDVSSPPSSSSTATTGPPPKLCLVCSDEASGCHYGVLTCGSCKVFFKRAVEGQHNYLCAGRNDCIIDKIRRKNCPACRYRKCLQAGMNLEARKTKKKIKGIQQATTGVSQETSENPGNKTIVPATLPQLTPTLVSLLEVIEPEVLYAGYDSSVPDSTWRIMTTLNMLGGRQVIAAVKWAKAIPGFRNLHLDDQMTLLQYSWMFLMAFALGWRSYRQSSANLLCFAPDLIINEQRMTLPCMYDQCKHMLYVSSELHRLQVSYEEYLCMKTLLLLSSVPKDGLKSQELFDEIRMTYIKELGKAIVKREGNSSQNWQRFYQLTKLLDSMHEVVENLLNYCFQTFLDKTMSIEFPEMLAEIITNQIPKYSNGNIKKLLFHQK
# Experiment: Evaluation test for binding activity to glucocorticoid receptor: receptor competitor assay by fluorescence polarization (Invitrogen GR competitor assay kit, cat No. P2816)
# Settings: 20 μM test compound solution, 10 μL per well plus 5 μL 4×GS1 and 5 μL 4×GR solution; room temperature 2 to 4 hours; a ratio of 100% or more is indicated by 100%
# Description: A detailed explanation of this matter will be described in the section of “Pharmacological Test” in Examples described below. In order to find the usefulness of the present compound as a pharmaceutical, a glucocorticoid receptor competitor assay was carried out by a fluorescence polarization method by using a glucocorticoid receptor competitor assay kit (manufactured by Invitrogen, cat No. P2816) to study the glucocorticoid receptor binding activity of the present compound.
# 1. Evaluation Test for Binding Activity to Glucocorticoid Receptor (hereinafter referred to as “GR”)
# In order to evaluate a binding activity to GR, a receptor competitor assay was carried out by a fluorescence polarization method. In the assay, a GR competitor assay kit (manufactured by Invitrogen, cat No. P2816) was used, and a procedure was carried out according to the protocol attached to the kit. Hereinafter, the specific method will be described.
# (Preparation of Reagents)
# GR screening buffer: A buffer containing 10 mM potassium phosphate (pH 7.4), 20 mM sodium molybdate (Na2MoO4), 0.1 mM ethylene diamine tetraacetic acid (EDTA), 5 mM dithiothreitol (DTT), 0.1 mM stabilizing peptide and 2% dimethylsulfoxide was prepared.
# 4×GS1 solution: Fluormone™ GS1, which is a fluorescent glucocorticoid ligand, was diluted with GR screening buffer, whereby a 4 nM solution was prepared.
# 4×GR solution: Recombinant human GR was diluted with GR screening buffer, whereby a 16 nM solution was prepared.
# (Preparation of Test Compound Solution)
# After a test compound was dissolved in dimethylsulfoxide, the resulting solution was diluted with GR screening buffer, whereby a 20 μM test compound solution was prepared.
# (Test Method and Measurement Method)
# 1) The test compound solution was added in an amount of 10 μL into each well of a 384-well plate, and then, 4×GS1 solution and 4×GR solution were added in an amount of 5 μL into each well, respectively.
# 2) The plate was incubated in a dark place at room temperature for 2 to 4 hours.
# 3) By using a multimode plate reader, Analyst™ HT (manufactured by LJL Biosystems), fluorescence polarization of each well was measured. As the blank, a well containing GR screening buffer in place of the test compound and 4×GS1 solution was used.
# 4) The same procedure as that in the above 1) to 3) was carried out except that GR screening buffer was used in place of the test compound solution, and the obtained result was taken as the negative control.
# 5) The same procedure as that in the above 1) to 3) was carried out except that 2 mM dexamethasone was used in place of the test compound solution, and the obtained result was taken as the positive control.
# (Calculation Equation of GR Binding Ratio)
# A GR binding ratio (%) was calculated from the following equation. GR binding ratio(%)=100×[1−(fluorescence polarization of test compound solution−fluorescence polarization of positive control solution)/(fluorescence polarization of negative control solution−fluorescence polarization of positive control solution)] (Test Results and Discussion)
row,SMILES,inhibition at 20 µM (stock) [%]
1,"COc1ccccc1NCc1c(-c2ccc(OS(=O)(=O)C(C)C)cc2OC)ccc2c1C(C)=CC(C)(C)N2 [Compound 2-2, 6-(4-Isopropylsulfonyloxy-2-methoxyphenyl)-5-(2-methoxyphenylaminomethyl)-2,2,4-trimethyl-1,2-dihydroquioline]",100
2,"COc1ccccc1NCc1c(-c2ccc(OC(=O)c3ccccc3)cc2OC)ccc2c1C(C)=CC(C)(C)N2 [Compound 1-3, 6-(4-Benzoyloxy-2-methoxyphenyl)-5-(2-methoxyphenylaminomethyl)-2,2,4-trimethyl-1,2-dihydroquioline]",95
3,"COc1ccccc1NCc1c(-c2ccc(OC(=O)c3cccnc3OC)cc2OC)ccc2c1C(C)=CC(C)(C)N2 [Compound 1-32, 6-[2-Methoxy-4-(2-methoxypyridin-3-ylcarbonyloxy)phenyl]-5-(2-methoxyphenylaminomethyl)-2,2,4-trimethyl-1,2-dihydroquinoline]",90
4,"COc1ccccc1NCc1c(-c2ccc(OC(=O)c3cccnc3C)cc2OC)ccc2c1C(C)=CC(C)(C)N2 [Compound 1-2, 6-[2-Methoxy-4-(2-methylpyridin-3-ylcarbonyloxy)phenyl]-5-(2-methoxyphenylaminomethyl)-2,2,4-trimethyl-1,2-dihydroquioline]",100
5,"COc1cc(OC(=O)c2cccnc2)ccc1-c1ccc2c(c1CNc1cc(F)ccc1C)C(C)=CC(C)(C)N2 [Compound 1-16, 5-(5-Fluoro-2-methylphenylaminomethyl)-6-[2-methoxy-4-(pyridin-3-ylcarbonyloxy)phenyl]-2,2,4-trimethyl-1,2-dihydroquinoline]",100

# Further lines, results first:
row,inhibition at 20 µM (stock) [%],SMILES
1,100,"COc1cc(OC(=O)c2cccnc2C)ccc1-c1ccc2c(c1CNc1cc(F)ccc1C)C(C)=CC(C)(C)N2 [Compound 1-38, 5-(5-Fluoro-2-methylphenylaminomethyl)-6-[2-methoxy-4-(2-methylpyridin-3-ylcarbonyloxy)phenyl]-2,2,4-trimethyl-1,2-dihydroquinoline]"
2,100,"COc1cc(OC(=O)c2ccccc2F)ccc1-c1ccc2c(c1CNc1cc(F)ccc1C)C(C)=CC(C)(C)N2 [Compound 1-35, 6-[4-(2-Fluorobenzoyloxy)-2-methoxyphenyl]-5-(5-fluoro-2-methylphenylaminomethyl)-2,2,4-trimethyl-1,2-dihydroquinoline]"
3,87,"COc1ccccc1NCc1c(-c2ccc(OC(=O)c3cccc(C(C)=O)c3)cc2OC)ccc2c1C(C)=CC(C)(C)N2 [Compound 1-27, 6-[4-(3-Acetylbenzoyloxy)-2-methoxyphenyl]-5-(2-methoxyphenylaminomethyl)-2,2,4-trimethyl-1,2-dihydroquinoline]"
4,99,"COc1ccccc1NCc1c(-c2ccc(OC(=O)c3ccccc3F)cc2OC)ccc2c1C(C)=CC(C)(C)N2 [Compound 1-12, 6-[4-(2-Fluorobenzoyloxy)-2-methoxyphenyl]-5-(2-methoxyphenylaminomethyl)-2,2,4-trimethyl-1,2-dihydroquinoline]"
5,95,"COc1ccccc1NCc1c(-c2ccc(OC(=O)c3ccsc3)cc2OC)ccc2c1C(C)=CC(C)(C)N2 [Compound 1-7, 5-(2-Methoxyphenylaminomethyl)-6-[2-methoxy-4-(thiophen-3-ylcarbonyloxy)phenyl]-2,2,4-trimethyl-1,2-dihydroquinoline]"
6,100,"COc1cc(OC(=O)N2CCOCC2)ccc1-c1ccc2c(c1CNc1cc(F)ccc1C)C(C)=CC(C)(C)N2 [Compound 1-45, 5-(5-Fluoro-2-methylphenylaminomethyl)-6-[2-methoxy-4-(morpholin-4-ylcarbonyloxy)phenyl]-2,2,4-trimethyl-1,2-dihydroquinoline]"
7,93,"COc1ccccc1NCc1c(-c2ccc(OC(=O)c3ccccc3Cl)cc2OC)ccc2c1C(C)=CC(C)(C)N2 [Compound 1-10, 6-[4-(2-Chlorobenzoyloxy)-2-methoxyphenyl]-5-(2-methoxyphenylaminomethyl)-2,2,4-trimethyl-1,2-dihydroquinoline]"
